Like-named read-outs stand apart in the source and are kept apart here.
Key:
[1] = target: T1, human Y1 receptor (Homo sapiens, UniProt P25929); assay: NPY receptor functional assay (cAMP, HEK-CNG cells, ACTOne membrane potential dye); format: cell-based
T1 sequence (P25929 1-384): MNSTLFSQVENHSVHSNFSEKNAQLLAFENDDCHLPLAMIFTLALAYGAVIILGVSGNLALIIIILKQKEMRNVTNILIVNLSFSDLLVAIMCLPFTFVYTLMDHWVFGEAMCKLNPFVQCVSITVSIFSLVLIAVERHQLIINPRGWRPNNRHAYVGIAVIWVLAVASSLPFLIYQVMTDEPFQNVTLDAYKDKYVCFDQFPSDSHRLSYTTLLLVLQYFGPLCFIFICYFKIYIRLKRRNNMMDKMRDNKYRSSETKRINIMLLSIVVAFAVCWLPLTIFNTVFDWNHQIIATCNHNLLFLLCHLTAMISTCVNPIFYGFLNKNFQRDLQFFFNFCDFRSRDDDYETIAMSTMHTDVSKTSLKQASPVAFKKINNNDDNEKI
From the text: The NPY family of G-protein coupled receptors include Y1, Y2, Y4, and Y5 in humans and rats. […] Following agonist binding, the receptor-G protein complex activates a downstream intracellular signaling cascade which leads to inhibition of adenylate cyclase and a reduction in intracellular cAMP levels.
HEK-CNG cells stably expressing the human or rat Y1, Y2, Y4 or Y5 receptors (Codex Biosolutions) were used to characterize the functional potency of peptide agonists using the ActOne™ membrane potential dye kit (Codex Biosolutions). In addition to each NPY receptor, each cell line encodes a proprietary exogenous Cyclic Nucleotide-Gated (CNG) channel (Codex Biosolutions). The channel is activated by elevated intracellular levels of cAMP, resulting in ion flux and cell membrane depolarization which can be detected with a calcium sensitive dye or fluorescent membrane potential (MP) dye. Cells were carried in growth media containing 90% DMEM, 10% FBS, 250 mcg/mL G418 and 1 mcg/mL puromycin for no more than 15 passages.
Prior to testing, cells were counted and dispensed at 14,000 cells per well (Y1, Y4 and Y5) or 28,000 cells per well (Y2) into black 384 well Poly-D-Lysine plates at 20 mcL per well. Covered plates were then incubated at room temperature for 30 minutes followed by an overnight incubation at 37° C. in 5% C02. The following day, media was removed and wells were washed once with 40 mcL Dulbecco's phosphate buffered saline. […] Ten microliters of experimental peptide or peptide standard was added in triplicate to wells and incubated for 50 minutes at room temperature in the dark. Following this incubation step, plates were read again as before (final read).
NPY receptor activation, leading to a reduction in intracellular cAMP levels, is detected as a decrease in isoproteranol induced fluorescent signal. Peptide standard and experimental values were initially transformed in excel using the formula: final read/initial read. […] Normalized data was analyzed from triplicate tests and used to estimate the EC50 for each test peptide on each receptor. Data was fit in GraphPad Prism software (v8.2.1) using a 3-parameter logistic curve model: Y=Bottom+(Top−Bottom)/(1+10^((LogEC50−X))). EC50 values were converted to pEC50 values using the formula: pEC50=−Log(EC50).

[2] = In vitro metabolic stability in kidney brush border membranes (kBBM); format: in vitro ADME; settings: 1 mcM peptide, 37° C.

## CC(C)C[C@H](NC(=O)[C@H](Cc1ccc(O)cc1)NC(=O)[C@H](Cc1c[nH]cn1)NC(=O)[C@H](CCCNC(=N)N)NC(=O)[C@H](CC(C)C)NC(=O)[C@H](CC(=O)O)NC(=O)[C@@H](CCCCNC(=O)CC[C@H](NC(=O)CC[C@H](NC(=O)CCCCCCCCCCCCCCCCCCC(=O)O)C(=O)O)C(=O)O)NC(=O)[C@H](Cc1ccc(O)cc1)NC(=O)[C@H](Cc1ccc(O)cc1)NC(=O)[C@H](CCCNC(=N)N)NC(=O)[C@H](CC(N)=O)NC(=O)[C@H](Cc1c[nH]c2ccccc12)NC(=O)[C@H](CCC(=O)O)NC(=O)[C@H](CCC(=O)O)NC(=O)[C@@H]1CCCN1C(=O)[C@H](CO)NC(=O)[C@H](C)NC(=O)[C@H](CC(=O)O)NC(=O)[C@H](CCCCN)NC(=O)CNC(=O)[C@@H]1CCCN1C(=O)[C@H](C)NC(=O)[C@H](CCC(=O)O)NC(=O)[C@@H]1CCCN1C(=O)[C@H](CCCCN)NC(=O)[C@@H]1CCCN1)C(=O)N[C@@H](CC(N)=O)C(=O)N[C@@H](Cc1c[nH]c2ccccc12)C(=O)N[C@@H](CC(C)C)C(=O)N[C@H](C(=O)N[C@@H](CCCNC(=N)N)C(=O)N[C@@H](CCC(N)=O)C(=O)N[C@@H](CCCNC(=N)N)C(=O)N[C@@H](Cc1ccccc1)C(N)=O)[C@@H](C)O [Compound A14]
[1]
  EC50: 3.16 nM
[2]; pH 7.4, human kBBM 50 mcg protein/mL, read-out: hkBBM t½ (converted)
  half-life at 1 mcM: > 12 h
[2]; pH 7.4, rat kBBM 50 mcg protein/mL, read-out: rkBBM t½
  half-life at 1 mcM: > 12 h

Reference: patent US12122816B2, “Long acting peptide tyrosine tyrosine (PYY) analogs and methods of use” (Intarcia Therapeutics, Inc., priority 2020, dated 2024)
